Test results reported in ChEMBL document CHEMBL1201862, “PubChem BioAssay data set” (2004).
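Dose response: 5 concentrations. Exposure: 48 h. Format: 96-well plates. Endpoint: linear interpolation; highest concentration if not reached. GI50 marks 50% less growth.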 Active and inactive are the calls of the source. Cut-off read from the data, not from the text of the source: active = GI50 up to about 1.1 µM and inactive = higher.

Assays:
Experiment in all cases: NCI anticancer screen, dose series, 48 h
OVCAR-8 = tested on: OVCAR-8
KM12 = tested on: KM12
SK-MEL-5 = tested on: SK-MEL-5
SF-539 = tested on: SF-539
SNB-19 = tested on: SNB-19
HCC 2998 = tested on: HCC 2998
HL-60 = tested on: HL-60
CAKI-1 = tested on: CAKI-1
SR = tested on: SR
IGROV-1 = tested on: IGROV-1
NCI-H460 = tested on: NCI-H460
OVCAR-3 = tested on: OVCAR-3
OVCAR-4 = tested on: OVCAR-4
UO-31 = tested on: UO-31
Malme-3M = tested on: Malme-3M
NCI-H23 = tested on: NCI-H23

Measured: GI50

CC(C)C(=O)N1C(=O)O[C@@H](c2ccccc2)[C@H]1C
inactive: OVCAR-8 > 100 µM | KM12 > 100 µM | SK-MEL-5 > 100 µM | SF-539 > 100 µM | SNB-19 > 23.6 µM | HCC 2998 > 100 µM | HL-60 > 100 µM | CAKI-1 > 37 µM | SR > 100 µM | IGROV-1 > 100 µM | NCI-H460 > 100 µM | OVCAR-3 > 100 µM | OVCAR-4 > 100 µM | UO-31 > 100 µM | Malme-3M > 100 µM | NCI-H23 > 100 µM

CC([C@H]1CCC2C3CCC4CC5(CC[C@]4(C)C3CC[C@@]21C)c1ccccc1C(=O)N5C)N(C)C (stereo partly specified)
inactive: OVCAR-8 39.8 µM | KM12 74.8 µM | SK-MEL-5 17.9 µM | SF-539 17.9 µM | SNB-19 42.3 µM | HCC 2998 > 100 µM | HL-60 17.5 µM | CAKI-1 > 100 µM | SR 18.1 µM | IGROV-1 40.6 µM | NCI-H460 21.4 µM | OVCAR-3 > 100 µM | OVCAR-4 68.1 µM | UO-31 13 µM | Malme-3M 21.2 µM | NCI-H23 > 100 µM

c1csc(-c2ccc(-c3ccc(-c4ccc(-c5cccs5)s4)s3)s2)c1
inactive: OVCAR-8 > 100 µM | SK-MEL-5 > 100 µM | SF-539 > 100 µM | HCC 2998 > 100 µM | HL-60 14.8 µM | CAKI-1 > 100 µM | SR 35.7 µM | IGROV-1 > 100 µM | NCI-H460 > 100 µM | OVCAR-3 > 100 µM | UO-31 > 100 µM | NCI-H23 > 100 µM

O=C(COc1ccccc1)NS(=O)(=O)c1ccccc1
inactive: OVCAR-8 > 100 µM | KM12 > 100 µM | SF-539 > 100 µM | SNB-19 > 100 µM | HCC 2998 > 100 µM | HL-60 > 100 µM | CAKI-1 > 100 µM | SR > 100 µM | IGROV-1 > 100 µM | NCI-H460 > 100 µM | OVCAR-3 > 100 µM | OVCAR-4 > 100 µM | UO-31 > 100 µM | Malme-3M > 100 µM | NCI-H23 > 100 µM

COC(=O)C1CCC2(C)[C@H](CCC3O[C@]32C)[C@@]1(C)CC(=O)c1ccoc1 (stereo partly specified)
inactive: OVCAR-8 > 100 µM | KM12 42.2 µM | SK-MEL-5 66.1 µM | SF-539 > 100 µM | SNB-19 33.9 µM | HCC 2998 > 100 µM | HL-60 75 µM | CAKI-1 > 100 µM | SR 41.5 µM | IGROV-1 58.6 µM | NCI-H460 72.9 µM | OVCAR-3 > 100 µM | OVCAR-4 > 100 µM | UO-31 27.9 µM | Malme-3M > 100 µM | NCI-H23 71 µM

CCC(=O)c1c(NOC2OCC(OC(C)=O)C(OC(C)=O)C2OC(C)=O)nc(OC)n(C)c1=O (stereo unspecified)
inactive: OVCAR-8 > 100 µM | KM12 > 100 µM | SK-MEL-5 > 100 µM | SF-539 > 100 µM | SNB-19 > 100 µM | HCC 2998 > 100 µM | HL-60 > 100 µM | CAKI-1 > 100 µM | SR > 100 µM | IGROV-1 > 100 µM | NCI-H460 > 100 µM | OVCAR-3 > 100 µM | OVCAR-4 > 100 µM | UO-31 > 100 µM | Malme-3M > 100 µM | NCI-H23 > 100 µM

CC(=O)NNc1nc(C)c(C(/C=C/c2ccc(Cl)cc2)=N\N=C(N)N)s1
inactive: OVCAR-8 > 100 µM | KM12 > 100 µM | SK-MEL-5 > 100 µM | SF-539 > 100 µM | SNB-19 > 100 µM | HCC 2998 > 100 µM | HL-60 > 100 µM | CAKI-1 > 100 µM | SR > 100 µM | IGROV-1 > 100 µM | NCI-H460 > 100 µM | OVCAR-3 > 100 µM | OVCAR-4 > 100 µM | UO-31 > 100 µM | Malme-3M > 100 µM | NCI-H23 > 100 µM

CC(=O)NC1=C(C)C(=O)c2c(nc3n2CCC3OC(=O)CCl)C1=O (stereo unspecified)
inactive: OVCAR-8 4.1 µM | KM12 15.6 µM | SK-MEL-5 12.7 µM | SF-539 2.73 µM | SNB-19 16.6 µM | HCC 2998 12.9 µM | HL-60 2.51 µM | CAKI-1 20.9 µM | SR 2.68 µM | IGROV-1 11.8 µM | NCI-H460 20.1 µM | OVCAR-3 1.41 µM | OVCAR-4 1.52 µM | UO-31 18 µM | Malme-3M 3.66 µM | NCI-H23 11.7 µM

COC(=O)C1CC(=O)O[C@H]1c1ccc(OC)c(OC)c1 (stereo partly specified)
inactive: OVCAR-8 > 100 µM | KM12 > 100 µM | SK-MEL-5 > 100 µM | SF-539 > 100 µM | HCC 2998 > 100 µM | HL-60 > 100 µM | CAKI-1 > 100 µM | SR > 100 µM | IGROV-1 > 100 µM | NCI-H460 > 100 µM | OVCAR-3 > 100 µM | OVCAR-4 > 100 µM | UO-31 > 100 µM | Malme-3M > 100 µM | NCI-H23 > 100 µM

Cc1ccc(S(=O)(=O)N/N=C/c2oc(-c3ccccc3Cl)c(-c3ccccc3Cl)c2[N+](=O)[O-])cc1
inactive: OVCAR-8 22.3 µM | KM12 > 100 µM | SK-MEL-5 19.5 µM | SF-539 22.4 µM | SNB-19 15.6 µM | HCC 2998 21 µM | HL-60 8.02 µM | CAKI-1 36.9 µM | SR 7.64 µM | IGROV-1 24.9 µM | NCI-H460 13.2 µM | OVCAR-3 > 100 µM | OVCAR-4 30 µM | UO-31 17.8 µM | Malme-3M 24 µM | NCI-H23 13.4 µM

CCCCCCC1=NOC(C(c2cc[nH]c2)N(C)[C@H](C(=O)OC)C(C)C)C1 (stereo partly specified)
inactive: OVCAR-8 42.2 µM | KM12 21.9 µM | SK-MEL-5 41.8 µM | SF-539 57 µM | SNB-19 65.9 µM | HCC 2998 33.9 µM | HL-60 27.3 µM | CAKI-1 > 100 µM | SR 23.6 µM | IGROV-1 65.8 µM | OVCAR-3 25.4 µM | OVCAR-4 39 µM | UO-31 61.7 µM | Malme-3M 70.1 µM | NCI-H23 47.8 µM

N#CC12Cc3ccc4c(c3-c3cccc(c31)CCN2C(=O)c1ccccc1)OCO4 (stereo unspecified)
inactive: OVCAR-8 > 100 µM | KM12 > 100 µM | SK-MEL-5 > 100 µM | SF-539 > 100 µM | SNB-19 > 100 µM | HCC 2998 > 100 µM | HL-60 > 100 µM | SR > 100 µM | IGROV-1 > 100 µM | OVCAR-3 > 100 µM | UO-31 > 100 µM | Malme-3M 64 µM | NCI-H23 > 100 µM

COC(=O)CC(C(C(C)=O)C(=O)OCc1ccccc1)N1C(=O)OCC1c1ccccc1 (stereo unspecified)
inactive: OVCAR-8 > 100 µM | SK-MEL-5 47.8 µM | SF-539 > 100 µM | SNB-19 > 100 µM | HCC 2998 > 100 µM | HL-60 91.6 µM | SR 74.5 µM | IGROV-1 50 µM | NCI-H460 75.2 µM | OVCAR-3 87.9 µM | OVCAR-4 71.3 µM | UO-31 44.4 µM | Malme-3M > 100 µM | NCI-H23 > 100 µM
